Reference: US20240109934A1, “ANTIBIOTICS WITH IMPROVED DRUG RESISTANCE PROFILE” (priority 2021, published 2024)
Values after ≈ are worked out from the molar mass of the structure shown. “Also recorded” adds a separate entry of the source. Like-named read-outs stand apart in the source and are kept apart here.

Columns and labels:
S. aureus ATCC 29213 [1] = test: MIC by micro-dilution broth method (CLSI); type: cell-based; conditions: for MIC: Staphylococcus aureus
[2] = Mouse liver microsome stability assay; type: in vitro ADME
Method: Mouse Liver Microsome Stability Assay. A mixture of PBS (pH 7.4), NADPH regenerating system solution A (Corning Life Sciences), and NADPH regenerating system solution B (Corning Life Sciences) was incubated at 37° C. in a shaking incubator for 5 min. Next, compound was added in DMSO (final concentration 50 μM, 0.5% DMSO) before ice-cold mouse liver microsomes (Thermo Fisher, male CD-1 mice, pooled) were added (final protein concentration of 1 mg/mL). An aliquot was immediately removed, quenched with an equal volume of 100 μM internal standard and centrifuged at 13,000 rcf for 3 min. The reactions were incubated at 37° C. in a shaking incubator for 3 h. A second aliquot was removed and quenched. Samples were analyzed with the 5500 QTRAP LC/MS/MS system (Sciex, Framingham, MA) in Metabolomics Lab of Roy J. Carver Biotechnology Center, University of Illinois at Urbana-Champaign. Software Analyst 1.6.2 was used for data acquisition and analysis. The 1200 series HPLC system (Agilent Technologies, Santa Clara, CA) includes a degasser, an autosampler, and a binary pump. The LC separation was performed on an Agilent Sb-Aq column (4.6×50 mm, […]) with mobile phase A (0.1% formic acid in water) and mobile phase B (0.1% formic acid in acetonitrile). The flow rate was 0.3 mL/min. The linear gradient was as follows: 0-3 min, 100% A; 10-16 min, 5% A; 16.5-22 min, 100% A. The autosampler was set at 10° C. The injection volume was 1 μL. Mass spectra were acquired under both positive (ion spray voltage was +5500 V) and negative (ion spray voltage was −4500 V) electrospray ionization (ESI). The source temperature was 450° C. The curtain gas, ion source gas 1, and ion source gas 2 were 33, 65, and 60 psi, respectively. Multiple reaction monitoring (MRM) was used for quantitation.

[3] = test system: multidrug-resistant clinical isolates of S. aureus; test: MIC against multidrug-resistant clinical isolates of S. aureus; type: cell-based; conditions: for Cross-resistance with vancomycin: 29 clinical isolates of S. aureus; for MIC: Staphylococcus aureus
E. faecium ATCC 19434 = test: MIC against sensitive E. faecium strain; type: cell-based; conditions: Enterococcus faecium, ATCC19434; sensitive strain E. faecium ATCC 19434
[4] = test system: multidrug-resistant clinical isolates of E. faecium; test: MIC against multidrug-resistant clinical isolates of E. faecium; type: cell-based; conditions: for Cross-resistance with vancomycin: E. faecium clinical isolates; for MIC: Enterococcus faecium
S. aureus ATCC 29213 [5] = test: Neutropenic thigh infection burden study, sensitive strain; type: in vivo; conditions: neutropenic CD-1 mice, 50 mg/kg IP at 1, 2, 3 h post infection, burden at 24 h
S. aureus (FA-32×-B) = test: Neutropenic thigh infection burden study, FA-resistant strain; type: in vivo; conditions: neutropenic CD-1 mice, FA-resistant strain (P406L), 50 mg/kg IP at 1, 2, 3 h, burden at 8 h

Structure (SMILES): CC(=O)O[C@H]1C[C@@]2(C)[C@@H](C[C@@H](O)[C@H]3[C@@]4(C)CC[C@@H](O)[C@@H](C)[C@@H]4CC[C@@]32C)/C1=C(\CCC=C(C)C)C(=O)O [FA, Fusidic acid]
- MIC (S. aureus ATCC 29213 [1]; ATCC29213, WT S. aureus ATCC 29213, n = 3, read-out: MIC Without Human Serum): 0.125 µg/mL (≈ 0.242 µM)
- Metabolic Stability in Mouse Liver Microsomes (percent remaining) ([2]; male, CD-1, mouse, microsomes, 3 h, 50 μM, pH 7.4): 82 ± 0.8%^
- Cross-resistance with vancomycin [3]: no cross-resistance with vancomycin
- MIC ([3]; NRS3, S. aureus NRS3 (NARSA), read-out: MIC): 0.0625 µg/mL (≈ 0.121 µM)
- MIC ([3]; NRS4, S. aureus NRS4 (NARSA), read-out: MIC): 0.0625 µg/mL (≈ 0.121 µM)
- MIC ([3]; NRS17, S. aureus NRS17 (NARSA), read-out: MIC): 0.0625 µg/mL (≈ 0.121 µM)
- MIC ([3]; NRS18, S. aureus NRS18 (NARSA), read-out: MIC): 0.125 µg/mL (≈ 0.242 µM)
- MIC ([3]; NRS21, S. aureus NRS21 (NARSA), read-out: MIC): 0.0625 µg/mL (≈ 0.121 µM)
- MIC ([3]; NRS22, S. aureus NRS22 (NARSA), read-out: MIC): 0.0625 µg/mL (≈ 0.121 µM)
- MIC ([3]; NRS23, S. aureus NRS23 (NARSA), read-out: MIC): 0.125 µg/mL (≈ 0.242 µM)
- MIC ([3]; NRS24, S. aureus NRS24 (NARSA), read-out: MIC): 0.0625 µg/mL (≈ 0.121 µM)
- MIC ([3]; NRS26, S. aureus NRS26 (NARSA), read-out: MIC): 0.0625 µg/mL (≈ 0.121 µM)
- MIC ([3]; NRS27, S. aureus NRS27 (NARSA), read-out: MIC): 0.125 µg/mL (≈ 0.242 µM)
- MIC ([3]; NRS29, S. aureus NRS29 (NARSA), read-out: MIC): 0.125 µg/mL (≈ 0.242 µM)
- MIC ([3]; NRS51, S. aureus NRS51 (NARSA), read-out: MIC): 0.0625 µg/mL (≈ 0.121 µM)
- MIC ([3]; NRS68, S. aureus NRS68 (NARSA), read-out: MIC): 0.125 µg/mL (≈ 0.242 µM)
- MIC ([3]; NRS73, S. aureus NRS73 (NARSA), read-out: MIC): 0.125 µg/mL (≈ 0.242 µM)
- MIC ([3]; NRS74, S. aureus NRS74 (NARSA), read-out: MIC): 0.125 µg/mL (≈ 0.242 µM)
- MIC ([3]; NRS76, S. aureus NRS76 (NARSA), read-out: MIC): 0.125 µg/mL (≈ 0.242 µM)
- MIC ([3]; NRS77, S. aureus NRS77 (NARSA), no noted resistance, read-out: MIC): 0.0625 µg/mL (≈ 0.121 µM)
- MIC ([3]; NRS382, S. aureus NRS382 (NARSA), read-out: MIC): 0.0625 µg/mL (≈ 0.121 µM)
- MIC ([3]; NRS383, S. aureus NRS383 (NARSA), read-out: MIC): 0.125 µg/mL (≈ 0.242 µM)
- MIC ([3]; NRS384, S. aureus NRS384 (NARSA), read-out: MIC): 0.125 µg/mL (≈ 0.242 µM)
- MIC ([3]; S. aureus AR0561 (CDC), read-out: MIC): 0.125 µg/mL (≈ 0.242 µM)
- MIC ([3]; S. aureus AR0562 (CDC), read-out: MIC): 0.125 µg/mL (≈ 0.242 µM)
- MIC ([3]; S. aureus AR0563 (CDC), read-out: MIC): 0.125 µg/mL (≈ 0.242 µM)
- MIC ([3]; S. aureus AR0564 (CDC), read-out: MIC): 0.125 µg/mL (≈ 0.242 µM)
- MIC ([3]; S. aureus AR0565 (CDC), read-out: MIC): 0.0625 µg/mL (≈ 0.121 µM)
- MIC ([3]; S. aureus AR0566 (CDC), read-out: MIC): 0.125 µg/mL (≈ 0.242 µM)
- MIC ([3]; S. aureus AR0567 (CDC), read-out: MIC): 0.125 µg/mL (≈ 0.242 µM)
- MIC ([3]; S. aureus AR0568 (CDC), read-out: MIC): 0.125 µg/mL (≈ 0.242 µM)
- MIC ([3]; S. aureus AR0570 (CDC), read-out: MIC): 0.125 µg/mL (≈ 0.242 µM)
- MIC (E. faecium ATCC 19434): 2 µg/mL (≈ 3.87 µM)
- Cross-resistance with vancomycin [4]: no cross-resistance with vancomycin
- MIC ([4]; E. faecium AR0572 (CDC), read-out: MIC): 4 µg/mL (≈ 7.74 µM)
- MIC ([4]; E. faecium AR0574 (CDC), read-out: MIC): 2 µg/mL (≈ 3.87 µM)
- MIC ([4]; E. faecium AR0575 (CDC), read-out: MIC): 2 µg/mL (≈ 3.87 µM)
- MIC ([4]; E. faecium AR0576 (CDC), read-out: MIC): 4 µg/mL (≈ 7.74 µM)
- MIC ([4]; E. faecium AR0578 (CDC), read-out: MIC): 2 µg/mL (≈ 3.87 µM)
- MIC ([4]; E. faecium AR0579 (CDC), read-out: MIC): 1 µg/mL (≈ 1.94 µM)
- Bacterial burden in thigh (S. aureus ATCC 29213 [5]): Significant reductions in bacterial burden
- Bacterial burden in thigh (S. aureus (FA-32×-B)): no efficacy

Structure (SMILES): CC(=O)O[C@H]1C[C@@]2(C)[C@@H](C[C@@H](O)[C@H]3[C@@]4(C)CC[C@@H](O)[C@@H](C)[C@@H]4CC[C@@]32C)/C1=C(\CCC=C1CCCC1)C(=O)O [FA-CP, (Z)-2-((3R,4S,5S,8S,9S,10S,11R,13R,14S,16S)-16-acetoxy-3,11-dihydroxy-4,8,10,14-tetramethylhexadecahydro-17H-cyclopenta[a]phenanthren-17-ylidene)-5-cyclopentylidenepentanoic acid]
- Antibacterial activity relative to FA (S. aureus ATCC 29213 [1]; S. aureus ATCC 29213 MIC): equipotent activity to FA
- MIC (S. aureus ATCC 29213 [1]; ATCC29213, read-out: MIC Without Human Serum): 0.125 µg/mL (≈ 0.23 µM)
- Metabolic Stability in Mouse Liver Microsomes (percent remaining) ([2]; 3 h at 37° C., LC-MS/MS, ± SEM of 3 biological replicates): 78 ± 4%
- Cross-resistance with vancomycin [3]: no cross-resistance with vancomycin
- MIC ([3]; NRS3, S. aureus NRS3 (NARSA)): 0.0625 µg/mL (≈ 0.115 µM)
- MIC ([3]; NRS4, S. aureus NRS4 (NARSA)): 0.0625 µg/mL (≈ 0.115 µM)
- MIC ([3]; NRS17, S. aureus NRS17 (NARSA)): 0.0625 µg/mL (≈ 0.115 µM)
- MIC ([3]; NRS18, S. aureus NRS18 (NARSA)): 0.125 µg/mL (≈ 0.23 µM)
- MIC ([3]; NRS21, S. aureus NRS21 (NARSA)): 0.0625 µg/mL (≈ 0.115 µM)
- MIC ([3]; NRS22, S. aureus NRS22 (NARSA)): 0.0625 µg/mL (≈ 0.115 µM)
- MIC ([3]; NRS23, S. aureus NRS23 (NARSA)): 0.125 µg/mL (≈ 0.23 µM)
- MIC ([3]; NRS24, S. aureus NRS24 (NARSA)): 0.0625 µg/mL (≈ 0.115 µM)
- MIC ([3]; NRS26, S. aureus NRS26 (NARSA)): 0.0625 µg/mL (≈ 0.115 µM)
- MIC ([3]; NRS27, S. aureus NRS27 (NARSA)): 0.125 µg/mL (≈ 0.23 µM)
- MIC ([3]; NRS29, S. aureus NRS29 (NARSA)): 0.125 µg/mL (≈ 0.23 µM)
- MIC ([3]; NRS51, S. aureus NRS51 (NARSA)): 0.0625 µg/mL (≈ 0.115 µM)
- MIC ([3]; NRS68, S. aureus NRS68 (NARSA)): 0.125 µg/mL (≈ 0.23 µM)
- MIC ([3]; NRS73, S. aureus NRS73 (NARSA)): 0.125 µg/mL (≈ 0.23 µM)
- MIC ([3]; NRS74, S. aureus NRS74 (NARSA)): 0.125 µg/mL (≈ 0.23 µM)
- MIC ([3]; NRS76, S. aureus NRS76 (NARSA)): 0.125 µg/mL (≈ 0.23 µM)
- MIC ([3]; NRS77, S. aureus NRS77 (NARSA), no noted resistance): 0.0625 µg/mL (≈ 0.115 µM)
- MIC ([3]; NRS382, S. aureus NRS382 (NARSA)): 0.0625 µg/mL (≈ 0.115 µM)
- MIC ([3]; NRS383, S. aureus NRS383 (NARSA)): 0.125 µg/mL (≈ 0.23 µM)
- MIC ([3]; NRS384, S. aureus NRS384 (NARSA)): 0.125 µg/mL (≈ 0.23 µM)
- MIC ([3]; S. aureus AR0561 (CDC)): 0.125 µg/mL (≈ 0.23 µM)
- MIC ([3]; S. aureus AR0562 (CDC)): 0.125 µg/mL (≈ 0.23 µM)
- MIC ([3]; S. aureus AR0563 (CDC)): 0.125 µg/mL (≈ 0.23 µM)
- MIC ([3]; S. aureus AR0564 (CDC)): 0.125 µg/mL (≈ 0.23 µM)
- MIC ([3]; S. aureus AR0565 (CDC)): 0.0625 µg/mL (≈ 0.115 µM)
- MIC ([3]; S. aureus AR0566 (CDC)): 0.125 µg/mL (≈ 0.23 µM)
- MIC ([3]; S. aureus AR0567 (CDC)): 0.125 µg/mL (≈ 0.23 µM)
- MIC ([3]; S. aureus AR0568 (CDC)): 0.125 µg/mL (≈ 0.23 µM)
- MIC ([3]; S. aureus AR0570 (CDC)): 0.125 µg/mL (≈ 0.23 µM)
- MIC (E. faecium ATCC 19434): 2 µg/mL (≈ 3.68 µM)
- Cross-resistance with vancomycin [4]: no cross-resistance with vancomycin
- MIC ([4]; E. faecium AR0572 (CDC)): 4 µg/mL (≈ 7.37 µM)
- MIC ([4]; E. faecium AR0574 (CDC)): 2 µg/mL (≈ 3.68 µM)
- MIC ([4]; E. faecium AR0575 (CDC)): 2 µg/mL (≈ 3.68 µM)
- MIC ([4]; E. faecium AR0576 (CDC)): 4 µg/mL (≈ 7.37 µM)
- MIC ([4]; E. faecium AR0578 (CDC)): 2 µg/mL (≈ 3.68 µM)
- MIC ([4]; E. faecium AR0579 (CDC)): 1 µg/mL (≈ 1.84 µM)
- Bacterial burden in thigh (S. aureus ATCC 29213 [5]): Significant reductions in bacterial burden
- Bacterial burden in thigh (S. aureus (FA-32×-B)): reductions in bacterial burden; also recorded: in vivo efficacy
